Data from paper PMC5433425 (PeerJ, 2017).
Where two headings read alike, the source gives them in different places.

Columns and labels:
[1] = tested on: E. coli AG100; assay: EtBr accumulation by real-time fluorometry; conditions: EtBr 1 µg/ml + inhibitor 80 µM
[2] = tested on: E. coli AG100A; conditions: EtBr […] + inhibitor 20 µM
[3] = tested on: E. coli AG100tet; assay: microbe, parasite or virus in culture; format: cell-based, Escherichia coli; conditions: AG100tet
Method: The assays were performed in triplicate and the MIC value was given as result of at least two concordant values.

CCCOc1ccc(-c2cc(OCCN3CCNCC3)c3ccccc3n2)cc1 [PQQ4R, 4-(2-(piperazin-1-yl)ethoxy)-2-(4-propoxyphenyl) quinolone]
EtBr fluorescence ([1]; cycle 5): 42.0049 | EtBr fluorescence ([1]; cycle 6): 50.7014 | EtBr fluorescence ([1]; cycle 7): 59.8624 | EtBr fluorescence ([1]; cycle 8): 68.0874 | EtBr fluorescence ([1]; cycle 9): 75.8019 | EtBr fluorescence ([1]; cycle 10): 82.5362 | EtBr fluorescence ([1]; cycle 11): 89.2 | EtBr fluorescence ([1]; cycle 12): 95.2197 | EtBr fluorescence ([1]; cycle 13): 100 | EtBr fluorescence ([1]; cycle 14): 100 | EtBr fluorescence ([1]; cycle 15): 100 | EtBr fluorescence ([1]; cycle 16): 100 | EtBr fluorescence ([1]; cycle 17): 100 | EtBr fluorescence ([1]; cycle 18): 100 | EtBr fluorescence ([1]; cycle 19): 100 | EtBr fluorescence ([1]; cycle 20): 100 | EtBr fluorescence ([1]; cycle 21): 100 | EtBr fluorescence ([1]; cycle 22): 100 | EtBr fluorescence ([1]; cycle 23): 100 | EtBr fluorescence ([1]; cycle 24): 100 | EtBr fluorescence ([1]; cycle 25): 100 | EtBr fluorescence ([1]; cycle 26): 100 | EtBr fluorescence ([1]; cycle 27): 100 | EtBr fluorescence ([1]; cycle 28): 100 | EtBr fluorescence ([1]; cycle 29): 100 | EtBr fluorescence ([1]; cycle 30): 100 | EtBr fluorescence ([2]; cycle 1): 3.005 | EtBr fluorescence ([2]; cycle 2): 3.689 | EtBr fluorescence ([2]; cycle 3): 4.425 | EtBr fluorescence ([2]; cycle 4): 5.09 | EtBr fluorescence ([2]; cycle 5): 5.663 | EtBr fluorescence ([2]; cycle 6): 6.261 | EtBr fluorescence ([2]; cycle 7): 6.784 | EtBr fluorescence ([2]; cycle 8): 7.347 | EtBr fluorescence ([2]; cycle 9): 7.957 | EtBr fluorescence ([2]; cycle 10): 8.552 | EtBr fluorescence ([2]; cycle 11): 9.107 | EtBr fluorescence ([2]; cycle 12): 9.505 | EtBr fluorescence ([2]; cycle 13): 10.1469 | EtBr fluorescence ([2]; cycle 14): 10.666 | EtBr fluorescence ([2]; cycle 15): 11.2994 | EtBr fluorescence ([2]; cycle 16): 11.7134 | EtBr fluorescence ([2]; cycle 17): 12.3988 | EtBr fluorescence ([2]; cycle 18): 12.7522 | EtBr fluorescence ([2]; cycle 19): 13.174 | EtBr fluorescence ([2]; cycle 20): 13.8181 | EtBr fluorescence ([2]; cycle 21): 14.2909 | EtBr fluorescence ([2]; cycle 22): 14.7163 | EtBr fluorescence ([2]; cycle 23): 15.2505 | EtBr fluorescence ([2]; cycle 24): 16.0503 | EtBr fluorescence ([2]; cycle 25): 16.1642 | EtBr fluorescence ([2]; cycle 26): 16.8061 | EtBr fluorescence ([2]; cycle 27): 17.3806 | EtBr fluorescence ([2]; cycle 28): 17.8352 | EtBr fluorescence ([2]; cycle 29): 18.1109 | EtBr fluorescence ([2]; cycle 30): 18.6334 | MIC of EtBr in presence of the efflux inhibitor ([3]; inhibitor 40 μM): 512 µg/mL | MIC of OFX in presence of the efflux inhibitor ([3]; inhibitor 40 μM): 0.5 µg/mL | MIC of OXA in presence of the efflux inhibitor ([3]; inhibitor 40 μM): >2,048 μg/ml | MIC of TET in presence of the efflux inhibitor ([3]; inhibitor 40 μM): 16 µg/mL | MIC of EtBr in presence of the efflux inhibitor ([3]; inhibitor 80 μM): 512 µg/mL | MIC of OFX in presence of the efflux inhibitor ([3]; inhibitor 80 μM): 0.25 µg/mL | MIC of OXA in presence of the efflux inhibitor ([3]; inhibitor 80 μM): 2,048 μg/ml | MIC of TET in presence of the efflux inhibitor ([3]; inhibitor 80 μM): 16 µg/mL | MIC of EtBr in presence of the efflux inhibitor ([3]; inhibitor 160 μM): 512 µg/mL | MIC of OFX in presence of the efflux inhibitor ([3]; inhibitor 160 μM): 0.25 µg/mL | MIC of OXA in presence of the efflux inhibitor ([3]; inhibitor 160 μM): 2,048 μg/ml | MIC of TET in presence of the efflux inhibitor ([3]; inhibitor 160 μM): 16 µg/mL | decrease in OFX MIC ([3]; inhibitor 80 and 160 µM): 4 fold | decrease in TET MIC ([3]; inhibitor 80 and 160 µM): 4 fold
